The results in this text go back to patent US10441663B2, “Methods for treating cancer” (Bicycle Therapeutics Limited, priority 2016, dated 2019).

The subject of data set [1] is LU-01-0046 non-small-cell lung carcinoma (NSCLC) PDX model. Briefly: Efficacy in LU-01-0046 NSCLC PDX model (high MT1-expressing, docetaxel resistant). Type of data set: in vivo, Balb/C nude mice. The text has this: The objective of the project is to evaluate the in vivo therapeutic efficacy of test articles in the LU-01-0046 non-small-cell lung carcinoma (NSCLC) PDX model. LU-01-0046 is a high MT1-expressing NSCLC that is docetaxel resistant.
Each mouse was inoculated subcutaneously at the right flank with certain kind of tumor fragment (30 mm3) for tumor development. The treatments started when the average tumor volume reaches approximately 150-200 mm^3. The test article administration and the animal numbers in each group are shown in Table 40 which details the experimental design.
Treatment was given until the control tumors reached an average of 1000 mm^3.
Before commencement of treatment all animals will be weighed and the tumor volumes will be measured. Since the tumor volume can affect the effectiveness of any given treatment, mice will be assigned into groups using randomized block design based upon their tumor volumes.
The protocol and any amendment(s) or procedures involving the care and use of animals in this study will be reviewed and approved prior to conduct. […] At the time of routine monitoring, the animals will be checked for any effects of tumor growth and treatments on normal behavior such as mobility, food and water consumption, body weight gain/loss (body weights will be measured twice weekly), eye/hair matting and any other abnormal effect. Death and observed clinical signs will be recorded on the basis of the numbers of animals within each subset.
The major endpoint is to see if the tumor growth can be delayed or mice can be cured. Tumor sizes will be measured twice weekly in two dimensions using a caliper and the volume will be expressed in mm^3 using the formula: V=0.5 a×b^2 where a and b are the long and short diameters of the tumor, respectively. […] T-C is calculated with T as the median time (in days) required for the treatment group tumors to reach a predetermined size (e.g., 1.000 mm^3), and C is the median time (in days) for the control group tumors to reach the same size. […]
TGI is calculated for each group using the formula. […]

For another data set, the system named is LU-01-0486 PDX model. Type of data set: in vivo, Mus Musculus. Conditions: 3 or 10 mg/kg. On the procedure:
The objective of this study was to evaluate the in vivo anti-tumor efficacy of BT1718 in the treatment of MT1-MMP low-expressing LU-01-0486 PDX model in female Balb/C nude mice
Each mouse was inoculated subcutaneously at the right flank with LU-01-0486 of tumor fragment (30 mm^3) for tumor development. The treatments was started when the average tumor volume reaches 164 mm^3.
All the procedures related to animal handling, care and the treatment in the study were performed following the guidance of the Association for Assessment and Accreditation of Laboratory Animal Care (AAALAC). At the time of routine monitoring, the animals were daily checked for any effects of tumor growth and treatments on normal behavior such as mobility, food and water consumption (by looking only), body weight gain/loss (body weights were measured twice weekly), eye/hair matting and any other abnormal effect as stated in the protocol. Death and observed clinical signs were recorded on the basis of the numbers of animals within each subset.
The major endpoint was to see if the tumor growth could be delayed or mice could be cured. Tumor size was measured two times weekly in two dimensions using a caliper, and the volume was expressed in mm^3 using the formula: V=0.5 a×b^2 where a and b are the long and short diameters of the tumor, respectively. The tumor size was then used for calculations of T/C value. […]
TGI was calculated for each group using the formula: TGI (%)=[1−(Ti−T0)/(Vi−V0)]×100; Ti is the average tumor volume of a treatment group on a given day, T0 is the average tumor volume of the treatment group on the day of treatment start, Vi is the average tumor volume of the vehicle control group on the same day with Ti, and V0 is the average tumor volume of the vehicle group on the day of treatment start. […]
A one-way ANOVA was performed to compare tumor volume among groups, and when a significant F-statistics (a ratio of treatment variance to the error variance) was obtained, comparisons between groups were carried out with Games-Howell test. All data were analyzed using Prism. […]

*1 amine or outer side, *2 acyl side, *3 side chain or, on linkers, in order; H or OH if unused. Where a SMILES comes first, the peptide text is derived from it. Bridges are numbered along the chain shown (N, C = ends). [ ]: non-standard residue; d: D form. The star is where a group is joined. X1 = COc1cc2cc(c1Cl)N(C)C(=O)C[C@H](OC(=O)[C@H](C)N(C)C(=O)CCSSC(C)CCC(=O)*)[C@]1(C)O[C@H]1[C@H](C)[C@@H]1C[C@@](O)(NC(=O)O1)[C@H](OC)/C=C/C=C(\C)C2; 1Nal = N[C@@H](Cc1cccc2ccccc12)C(=O)O; TBMB = c1c(C[*:1])cc(C[*:3])cc1C[*:2]; Tle = CC(C)(C)[C@H](N)C(=O)O; βAla = NCCC(=O)O; Sar = CNCC(=O)O

In the case of `COc1cc2cc(c1Cl)N(C)C(=O)C[C@H](OC(=O)[C@H](C)N(C)C(=O)CCSSC(C)CCC(=O)NCCC(=O)N(C)CC(=O)N(C)CC(=O)N(C)CC(=O)N(C)CC(=O)N(C)CC(=O)N(C)CC(=O)N(C)CC(=O)N(C)CC(=O)N(C)CC(=O)N(C)CC(=O)N[C@@H](C)C(=O)N[C@H]1CSCc3cc4cc(c3)CSC[C@H](NC(=O)[C@@H](C)NC(=O)[C@H](Cc3cccc5ccccc35)NC(=O)[C@H](CCC(=O)O)NC(=O)[C@H](CC(N)=O)NC(=O)[C@@H](C)NC1=O)C(=O)N[C@@H](CCC(=O)O)C(=O)N[C@@H](CC(=O)O)C(=O)N[C@@H](Cc1ccccc1)C(=O)N[C@@H](Cc1ccc(O)cc1)C(=O)N[C@@H](CC(=O)O)C(=O)N[C@@H](C(C)(C)C)C(=O)N[C@H](C(N)=O)CSC4)[C@]1(C)O[C@H]1[C@H](C)[C@@H]1C[C@@](O)(NC(=O)O1)[C@H](OC)/C=C/C=C(\C)C2` (some centres unmarked) [BT1718] ({X1-βAla}-[Sar][Sar][Sar][Sar][Sar][Sar][Sar][Sar][Sar][Sar]AC[dA]NE[1Nal][dA]CEDFYD[Tle]C-NH2; linker 12-18-25 via TBMB (inferred)), the tumor response entry in data set [1] (3 mg/kg biw) was “tumor stasis”. In addition, in data set [1] (10 mg/kg biw), the “relapse after cessation of dosing” value is “lack of relapse” and the tumor response entry was “tumor eradication”. Moreover, in the data set with LU-01-0486 PDX model, the body weight effect entry is on record as “no significant effect on body weight” and the tumor growth result was “limited inhibition of tumor growth”.
